Results from patent publication US8475800B2, “Phosphorylated derivatives of a U1-70K peptide and their use in the treatment of autoimmune pathologies” (Centre National de la Recherche Scientifique, priority 2001, dated 2013).
Square brackets hold non-standard residues; d marks the D form. Ends that are not written are not given here. pS = N[C@@H](COP(=O)(O)O)C(=O)O

Columns and labels:
HLA-DR1 = assay: Binding to human MHC class II molecule HLA-DR1; settings: peptide 0.01-100 μM; FIG. 19
Description: (§1) FIG. 19: binding of the 131-151 and P140 peptides to the human major histocompatibility complex class II molecules; the results are expressed as a percentage of binding of the peptides to the HLA-DR1, -DR4 and DR11 molecules; the percentage inhibition is calculated as a function of the O.D. values measured in the presence of various concentrations of 131-151 and P140 peptides (0.01-100 μM).

[1] = system: pre-autoimmune MRL/lpr mice; assay: Administration to pre-autoimmune MRL/lpr mice, monitoring of disease development; assay type: in vivo
Description: The two peptides (phosphorylated in position 140 and non-phosphorylated) were used for a study of restoration of self-tolerance. These two peptides were injected by intravenous and intra-nasal route into preautoimmune mice, and the development of the disease in these mice was monitored.

[2] = system: antibodies of MRL/lpr lupic mice; assay: Recognition by antibodies of MRL/lpr lupic mice (ELISA titre); assay type: binding; settings: compared with the non-phosphorylated parent peptide; FIG. 13
Excerpt: (§2) FIG. 13: recognition of the P140 peptide by the CD4^+ T lymphocytes (A) of MRL/lpr lupic mice; the graph on the left represents the proliferation of CD4^+ T cells expressed in stimulation indices as defined above in the presence of the 131-151 peptide, of the phosphorylated P137 and P140 peptides and of two scrambled peptides, phosphorylated or not phosphorylated (Sc and ScP); the positivity limit corresponds to 2.0; the graph on the right represents the secretion of IL-2 (mU/ml) in the presence of the 131-151 peptide, the P137 and P140 peptides and the Sc and ScP peptides; and by the antibodies (B) of MRL/lpr lupic mice; the results are expressed in titre of antibodies corresponding to the dilution allowing an O.D. value at 450 nm equal to 0.2 to be obtained in an ELISA test.

HLA-DR4 = assay: Binding to human MHC class II molecule HLA-DR4; settings: peptide 0.01-100 μM; FIG. 19
Description: as §1

HLA-DR11 = assay: Binding to human MHC class II molecule HLA-DR11; settings: peptide 0.01-100 μM; FIG. 19
Description: as §1

[3] = system: CD4+ T cells of MRL/lpr lupic mice; assay: Recognition by CD4+ T cells of MRL/lpr lupic mice (ex vivo proliferation, IL-2 secretion); assay type: cell-based
Description: (§3) FIG. 1: recognition of the 131-151 peptide of the 70K protein by the CD4+ T cells of MRL/lpr (right column) or NZB/W lupic mice (left column); the peptide concentrations are indicated on the x-axis, the proliferation of the CD4+ T cells of MRL/lpr and BW mice, represented on the y-axis of the graphs of the first line, is measured ex vivo in the presence of the various concentrations of 131-151 peptide of the 70K protein; the proliferation is expressed in stimulation indices corresponding to the radioactivity incorporated in the DNA of the cells (in counts per minute) in the presence of peptide on the incorporation of radioactivity in the absence of peptide; the secretion of IL-2, represented on the y-axis of the graphs of the second line, is measured in the supernatants after 24 hrs of culture by a bio-assay; the IL-2 concentration is determined with a standard range of recombinant IL-2 and is expressed in mU/ml.
as §2

[4] = system: antibodies of MRL/lpr lupic mice; settings: among 20 overlapping peptides of the 70K protein; cited from earlier work
[5] = system: CD4+ T cells of NZB/W lupic mice; assay: Recognition by CD4+ T cells of NZB/W lupic mice; assay type: cell-based; settings: FIG. 1
Description: as §3

[6] = system: major histocompatibility complex class II molecules (I-E^k, I-A^k, I-E^d, I-A^d); assay: Binding to murine MHC class II molecules (transfected fibroblasts, T hybridoma IL-2 competition); assay type: cell-based; settings: murine (and human, as worded in b8); FIG. 2
Description: FIG. 2: binding of the 131-151 peptide to the molecules of the major histocompatibility complex of class II murines (I-E^k, I-A^k, I-E^d, I-A^d); fibroblasts transfected by the molecules I-E^k, or I-A^k, or I-E^d, or I-A^d are pre-incubated with different concentrations of the 131-151 peptide; after 30 minutes at 37° C., the 12-26CI or 16-33 analogue peptides of the β2-adrenergic receptor, as well as the respective T hybridomas which recognize these peptides in the adapted context (8I for I-E^k, E7E9 for I-A^k, 26.1 for I-E^d, and 26.2 for I-A^d) are added; the supernatants are recovered after 24 hrs of culture and the secretion of IL-2 is evaluated as previously; the results are expressed as a % inhibition representing the ability of the 131-151 peptide to inhibit the binding of the 12-26 CI and 16-33[…]2 analogue peptides to the class II molecules.

[7] = intravenous route, pre-autoimmune MRL/lpr mice, FIG. 14
[8] = in vitro, CD4+ T cells purified from the ganglia of MRL/lpr mice

Row | Substance | binding to HLA-DR1 (HLA-DR1) | appearance of glomerulonephritis ([1]; intranasal route, pre-autoimmune MRL/lpr mice, FIG. 14) | appearance of glomerulonephritis [1, 7] | production of antibodies directed against the DNA [1, 7] | survival of animals [1, 7] | recognition by the antibodies of lupic mice [2] | binding to HLA-DR4 (HLA-DR4) | binding to HLA-DR11 (HLA-DR11) | recognition by the CD4+ T cells of lupic mice ([3]; compared with the non-phosphorylated parent peptide, FIG. 13) | recognition by the antibodies of MRL/lpr lupic mice [4] | proteinuria ([1]; group injected with the peptide, versus saline control) | effect of administration on anti-DNA antibodies, glomerulonephritis and survival ([1]; pre-autoimmune mice, listed as parent peptide) | mice survived ([1]; to 35 weeks, p=0.2 compared to the control mice) | epitope of the 70K protein in the NZB/W mouse [5] | binding to major histocompatibility complex class II molecules [6] | proliferation of CD4+ T cells [3, 8] | secretion of IL-2 by CD4+ T cells [3, 8]
1 | P140: sequence SEQ ID NO: 1 (RIHMVYSKRSGKPRGYAFIEY) in which the serine in position 10 is phosphorylated (RIHMVYSKR[pS]GKPRGYAFIEY; listed as Homo sapiens) | capable of binding | not by intranasal route | delays the appearance of glomerulonephritis | reduces the production of large numbers of antibodies directed against the DNA | prolongs the survival of animals | to the same extent as or even to a greater extent than the non-phosphorylated peptide | capable of binding | capable of binding | to the same extent as or even to a greater extent than the non-phosphorylated peptide | – | – | – | – | – | – | – | –
2 | RIHMVYSKRSGKPRGYAFIEY (listed as Homo sapiens) [131-151] | capable of binding | – | – | – | – | – | capable of binding | capable of binding | – | recognized very early | hardly reduced | does not on the other hand induce any statistically significant effect | 25% | major epitope | capable of binding | capable of stimulating | capable of stimulating
